Measured values: patent publication US20260262643A1, “HERBICIDAL BENZOXAZINES” (FMC CORPORATION, priority 2022, published 2026)

What was measured:
[1] = tested on: green foxtail; experiment: Test C preemergence; format: in vivo, Setaria viridis; conditions: 0 to 100 scale (0 no effect, 100 complete control); for Foxtail, Green plant response rating: preemergence
How it was run: (§1)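 Seeds sown in loam soil–sand blend received a directed preemergence soil spray of test chemical in non-phytotoxic solvent with surfactant; postemergence plants (2–10 cm, one- to two-leaf stage) were sprayed with the same formulation. Greenhouse-held 10 days, then visually rated for injury versus untreated controls, 0 (no effect) to 100 (complete control).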

[2] = tested on: rice; experiment: Test D flooded paddy test; format: in vivo, Oryza sativa; conditions: 250 g ai/ha, applied to paddy water, visual rating after 13 to 14 days, scale 0 to 100 (0 no effect, 100 complete control)
How it was run: (§2)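 Rating scale 0–100 (0 no effect, 100 complete control), visual, versus controls. Readout at 13–14 days after in-water application to 2-leaf plants in pots flooded 3 cm deep.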

[3] = tested on: barnyardgrass; experiment: Test C postemergence; format: in vivo, Echinochloa crusgalli; conditions: 10 days
How it was run: as §1

[4] = tested on: pigweed, palmer; experiment: Test C preemergence; format: in vivo, Amaranthus palmeri; conditions: 0 to 100 scale (0 no effect, 100 complete control); for Pigweed, Palmer plant response rating: preemergence
How it was run: as §1

[5] = tested on: ducksalad; experiment: Test D flooded paddy test; format: in vivo, Heteranthera limosa; conditions: 250 g ai/ha, applied to paddy water, visual rating after 13 to 14 days, scale 0 to 100 (0 no effect, 100 complete control)
How it was run: as §2

[6] = tested on: barnyardgrass; experiment: Test D flooded paddy test; format: in vivo, Echinochloa crus-galli; conditions: 250 g ai/ha, applied to paddy water, visual rating after 13 to 14 days, scale 0 to 100 (0 no effect, 100 complete control)
How it was run: as §2

[7] = tested on: barnyardgrass; experiment: Test C preemergence; format: in vivo, Echinochloa crusgalli; conditions: 0 to 100 scale (0 no effect, 100 complete control); for Barnyardgrass plant response rating: preemergence
How it was run: as §1

[8] = tested on: ryegrass, Italian; experiment: Test C preemergence; format: in vivo, Lolium multiflorum; conditions: 0 to 100 scale (0 no effect, 100 complete control); for Ryegrass, Italian plant response rating: preemergence
How it was run: as §1

[9] = tested on: blackgrass; experiment: Test C postemergence; format: in vivo, Alopecurus myosuroides; conditions: 10 days
How it was run: as §1

[10] = tested on: corn; experiment: Test C postemergence; format: in vivo, Zea mays; conditions: 10 days
How it was run: as §1

[11] = tested on: corn; experiment: Test C preemergence; format: in vivo, Zea mays; conditions: 0 to 100 scale (0 no effect, 100 complete control); for Corn plant response rating: preemergence
How it was run: as §1

[12] = tested on: green foxtail; experiment: Test C postemergence; format: in vivo, Setaria viridis; conditions: 10 days
How it was run: as §1

[13] = tested on: oat, wild; experiment: Test C preemergence; format: in vivo, Avena fatua; conditions: 0 to 100 scale (0 no effect, 100 complete control); for Oat, Wild plant response rating: preemergence
How it was run: as §1

[14] = tested on: galium; experiment: Test C postemergence; format: in vivo, Galium aparine; conditions: 10 days
How it was run: as §1

[15] = tested on: ryegrass, Italian; experiment: Test C postemergence; format: in vivo, Lolium multiflorum; conditions: 10 days
How it was run: as §1

[16] = tested on: kochia; experiment: Test C postemergence; format: in vivo, Bassia scoparia; conditions: 10 days
How it was run: as §1

[17] = tested on: ragweed; experiment: Test C preemergence; format: in vivo, Ambrosia artemisiifolia; conditions: 0 to 100 scale (0 no effect, 100 complete control); for Ragweed plant response rating: preemergence
How it was run: as §1

[18] = tested on: wheat; experiment: Test C postemergence; format: in vivo, Triticum aestivum; conditions: 10 days
How it was run: as §1

[19] = tested on: kochia; experiment: Test C preemergence; format: in vivo, Bassia scoparia; conditions: 0 to 100 scale (0 no effect, 100 complete control); for Kochia plant response rating: preemergence
How it was run: as §1

[20] = tested on: pigweed, palmer; experiment: Test C postemergence; format: in vivo, Amaranthus palmeri; conditions: 10 days
How it was run: as §1

[21] = tested on: ragweed; experiment: Test C postemergence; format: in vivo, Ambrosia artemisiifolia; conditions: 10 days
How it was run: as §1

[22] = tested on: soybean; experiment: Test C postemergence; format: in vivo, Glycine max; conditions: 10 days
How it was run: as §1

[23] = tested on: blackgrass; experiment: Test C preemergence; format: in vivo, Alopecurus myosuroides; conditions: 0 to 100 scale (0 no effect, 100 complete control); for Blackgrass plant response rating: preemergence
How it was run: as §1

[24] = tested on: soybean; experiment: Test C preemergence; format: in vivo, Glycine max; conditions: 0 to 100 scale (0 no effect, 100 complete control); for Soybean plant response rating: preemergence
How it was run: as §1

[25] = tested on: wheat; experiment: Test C preemergence; format: in vivo, Triticum aestivum; conditions: 0 to 100 scale (0 no effect, 100 complete control); for Wheat plant response rating: preemergence
How it was run: as §1

[26] = tested on: horseweed; experiment: Test C postemergence; format: in vivo, Erigeron canadensis; conditions: 10 days
How it was run: as §1

[27] = tested on: oat, wild; experiment: Test C postemergence; format: in vivo, Avena fatua; conditions: 10 days
How it was run: as §1

[28] = tested on: sedge, umbrella; experiment: Test D flooded paddy test; format: in vivo, Cyperus difformis; conditions: 250 g ai/ha, applied to paddy water, visual rating after 13 to 14 days, scale 0 to 100 (0 no effect, 100 complete control)
How it was run: as §2

[29] = 500 g ai/ha, postemergence, 0 to 100 scale (0 no effect, 100 complete control)
[30] = Postemergence, 125 g ai/ha, 0 to 100 scale (0 no effect, 100 complete control)
[31] = Preemergence, 500 g ai/ha, visual rating after 10 days
[32] = 125 g ai/ha, postemergence, 0 to 100 scale, 0 no effect, 100 complete control
[33] = Postemergence, 500 g ai/ha, visual 0 to 100 scale (0 no effect, 100 complete control)

Cc1cccc2c1OC(C(F)(F)F)CN2C(=O)c1cccc(-n2cnc(C(C)C)n2)c1 (racemic) [Compound 301]
Foxtail, Green plant response rating ([1]; 500 g ai/ha): 100 | Foxtail, Green plant response rating ([1]; Test C, 125 g ai/ha): 100 | Plant response rating, Rice (Flood) [2]: 15 | Plant response rating, Barnyardgrass [3, 29]: 40 | Plant response rating, Barnyardgrass [3, 30]: 10 | Pigweed, Palmer plant response rating ([4]; 500 g ai/ha): 100 | Pigweed, Palmer plant response rating ([4]; Test C, 125 g ai/ha): 90 | Plant response rating, Ducksalad (Flood) [5]: 55 | Plant response rating, Barnyardgrass (Flood) [6]: 20 | Barnyardgrass plant response rating ([7]; 500 g ai/ha): 90 | Barnyardgrass plant response rating ([7]; Test C, 125 g ai/ha): 50 | Ryegrass, Italian plant response rating ([8]; 500 g ai/ha): 100 | Ryegrass, Italian plant response rating ([8]; Test C, 125 g ai/ha): 100 | Plant response rating, Blackgrass [9, 29]: 100 | Plant response rating, Blackgrass [9, 30]: 90 | Plant response rating, Corn [10, 29]: 80 | Plant response rating, Corn [10, 30]: 10 | Corn plant response rating ([11]; 500 g ai/ha): 0 | Corn plant response rating ([11]; Test C, 125 g ai/ha): 0 | Plant response rating, Foxtail, Green [12, 29]: 70 | Plant response rating, Foxtail, Green [12, 30]: 10 | Oat, Wild plant response rating ([13]; 500 g ai/ha): 90 | Oat, Wild plant response rating ([13]; Test C, 125 g ai/ha): 70 | Plant response rating, Galium [14, 29]: 100 | Plant response rating, Galium [14, 30]: 100 | Plant response rating, Ryegrass, Italian [15, 29]: 80 | Plant response rating, Ryegrass, Italian [15, 30]: 70 | Plant response rating, Kochia [16, 29]: 80 | Plant response rating, Kochia [16, 30]: 50 | Ragweed plant response rating ([17]; 500 g ai/ha): 50 | Ragweed plant response rating ([17]; Test C, 125 g ai/ha): 0 | Plant response rating, Wheat [18, 29]: 50 | Plant response rating, Wheat [18, 30]: 20 | Kochia plant response rating ([19]; 500 g ai/ha): 90 | Kochia plant response rating ([19]; Test C, 125 g ai/ha): 80 | Plant response rating, Pigweed, Palmer [20, 29]: 60 | Plant response rating, Pigweed, Palmer [20, 30]: 10 | Plant response rating, Ragweed [21, 29]: 60 | Plant response rating, Ragweed [21, 30]: 30 | Plant response rating, Soybean [22, 29]: 100 | Plant response rating, Soybean [22, 30]: 100 | Blackgrass plant response rating ([23]; 500 g ai/ha): 100 | Blackgrass plant response rating ([23]; Test C, 125 g ai/ha): 90 | Soybean plant response rating ([24]; 500 g ai/ha): 100 | Soybean plant response rating ([24]; Test C, 125 g ai/ha): 10 | Wheat plant response rating ([25]; 500 g ai/ha): 90 | Wheat plant response rating ([25]; Test C, 125 g ai/ha): 40 | Plant response rating, Horseweed [26, 29]: 0 | Plant response rating, Horseweed [26, 30]: 20 | Plant response rating, Oat, Wild [27, 29]: 50 | Plant response rating, Oat, Wild [27, 30]: 20 | Plant response rating, Sedge, Umbrella (Flood) [28]: 85

CC(C)n1cnc(-c2cccc(C(=O)N3C[C@H](C)Oc4c(Cl)cccc43)c2)n1 [Compound 172]
Plant response rating, Foxtail, Green [1, 31]: 0 | Foxtail, Green plant response rating ([1]; Test C, 125 g ai/ha): 0 | Plant response rating, Rice (Flood) [2]: 0 | Plant response rating, Barnyardgrass [3, 32]: 0 | Plant response rating, Barnyardgrass [3, 33]: 0 | Plant response rating, Pigweed, Palmer [4, 31]: 0 | Pigweed, Palmer plant response rating ([4]; Test C, 125 g ai/ha): 0 | Plant response rating, Ducksalad (Flood) [5]: 0 | Plant response rating, Barnyardgrass (Flood) [6]: 0 | Plant response rating, Barnyardgrass [7, 31]: 0 | Barnyardgrass plant response rating ([7]; Test C, 125 g ai/ha): 0 | Plant response rating, Ryegrass, Italian [8, 31]: 20 | Ryegrass, Italian plant response rating ([8]; Test C, 125 g ai/ha): 0 | Plant response rating, Blackgrass [9, 32]: 0 | Plant response rating, Blackgrass [9, 33]: 0 | Plant response rating, Corn [10, 32]: 0 | Plant response rating, Corn [10, 33]: 0 | Plant response rating, Corn [11, 31]: 0 | Corn plant response rating ([11]; Test C, 125 g ai/ha): 0 | Plant response rating, Foxtail, Green [12, 32]: 0 | Plant response rating, Foxtail, Green [12, 33]: 0 | Plant response rating, Oat, Wild [13, 31]: 0 | Oat, Wild plant response rating ([13]; Test C, 125 g ai/ha): 0 | Plant response rating, Galium [14, 32]: 0 | Plant response rating, Galium [14, 33]: 0 | Plant response rating, Ryegrass, Italian [15, 32]: 0 | Plant response rating, Ryegrass, Italian [15, 33]: 0 | Plant response rating, Kochia [16, 32]: 0 | Plant response rating, Kochia [16, 33]: 30 | Plant response rating, Ragweed [17, 31]: 0 | Ragweed plant response rating ([17]; Test C, 125 g ai/ha): 0 | Plant response rating, Wheat [18, 32]: 0 | Plant response rating, Wheat [18, 33]: 0 | Plant response rating, Kochia [19, 31]: 0 | Kochia plant response rating ([19]; Test C, 125 g ai/ha): 0 | Plant response rating, Pigweed, Palmer [20, 32]: 0 | Plant response rating, Pigweed, Palmer [20, 33]: 0 | Plant response rating, Ragweed [21, 32]: 0 | Plant response rating, Ragweed [21, 33]: 0 | Plant response rating, Soybean [22, 32]: 0 | Plant response rating, Soybean [22, 33]: 0 | Plant response rating, Blackgrass [23, 31]: 0 | Blackgrass plant response rating ([23]; Test C, 125 g ai/ha): 0 | Plant response rating, Soybean [24, 31]: 0 | Soybean plant response rating ([24]; Test C, 125 g ai/ha): 0 | Plant response rating, Wheat [25, 31]: 0 | Wheat plant response rating ([25]; Test C, 125 g ai/ha): 0 | Plant response rating, Horseweed [26, 32]: 0 | Plant response rating, Horseweed [26, 33]: 0 | Plant response rating, Oat, Wild [27, 32]: 0 | Plant response rating, Oat, Wild [27, 33]: 0 | Plant response rating, Sedge, Umbrella (Flood) [28]: 0
